Here are results for three molecules from patent EP4692105A1, “CYCLIC POLYPEPTIDE COMPOUND AND USE THEREOF” (Bivision Pharmaceuticals, Inc, priority 2023, dated 2024).

For assay [1], the target named is T1, fibroblast activation protein (FAP) (Homo sapiens, UniProt Q12884).
T1 sequence (Q12884 1-760): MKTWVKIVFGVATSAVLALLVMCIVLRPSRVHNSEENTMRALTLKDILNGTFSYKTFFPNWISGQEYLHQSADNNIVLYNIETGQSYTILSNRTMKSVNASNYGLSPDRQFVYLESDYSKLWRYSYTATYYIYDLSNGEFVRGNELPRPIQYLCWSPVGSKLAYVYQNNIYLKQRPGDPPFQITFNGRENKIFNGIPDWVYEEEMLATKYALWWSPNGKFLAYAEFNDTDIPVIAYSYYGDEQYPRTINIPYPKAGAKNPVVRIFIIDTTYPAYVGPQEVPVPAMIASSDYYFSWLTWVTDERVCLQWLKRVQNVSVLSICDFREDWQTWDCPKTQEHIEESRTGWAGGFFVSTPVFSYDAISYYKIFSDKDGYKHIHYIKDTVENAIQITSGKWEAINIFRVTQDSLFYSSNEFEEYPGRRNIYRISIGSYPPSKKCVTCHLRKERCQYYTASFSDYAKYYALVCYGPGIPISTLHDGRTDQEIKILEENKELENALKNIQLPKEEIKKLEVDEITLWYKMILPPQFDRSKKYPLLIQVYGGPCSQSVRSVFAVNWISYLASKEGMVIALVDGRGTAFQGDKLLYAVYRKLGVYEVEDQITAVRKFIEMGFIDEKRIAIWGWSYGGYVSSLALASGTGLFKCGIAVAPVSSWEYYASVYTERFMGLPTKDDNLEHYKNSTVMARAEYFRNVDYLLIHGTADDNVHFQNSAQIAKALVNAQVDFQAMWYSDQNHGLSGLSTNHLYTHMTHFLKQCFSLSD
In words: Protease inhibition selectivity assay (fluorogenic substrate Z-Gly-Pro-AMC), FAP. The assay is classed as biochemical. Conditions: recombinant human FAP 1.2 nM, pH 7.5. The procedure: (§1) The specificity of the synthesized compounds for recombinant human dipeptidyl peptidase IV (DPPIV), fibroblast activation protein (FAP), or prolyl oligopeptidase (PREP) was expressed by their half-maximal inhibitory concentration (IC50) against the proteases. […] It was incubated at room temperature for 10 minutes, with the plate being shaken for the first two minutes. • 6) 10 µL of the 20x substrate prepared in step 3 was added to each well and incubated at room temperature for 15 minutes, with the plate being shaken for the first two minutes. • 7) Fluorescence was read at λex:380 and λem:460.

The target of assay [2] is dipeptidyl peptidase IV (DPPIV) (Homo sapiens, UniProt P27487). Nature of the assay: Protease inhibition selectivity assay (fluorogenic substrate Gly-Pro-AMC), DPPIV. The assay is classed as biochemical. Conditions: recombinant human DPPIV 0.1 nM, pH 7.5; read-out: pIC50 (DPPIV) (converted). The procedure:
as §1

The target in assay [3] is T2, FAP protein (Homo sapiens, UniProt Q12884).
T2 construct: purchased Sinobiological
T2 sequence (Q12884 1-760): T1 sequence (Q12884 1-760)
Nature of the assay: Biacore (SPR) test of compound affinity to FAP protein. Conditions: for pKD (FAP): Biacore 8K, SA chip, 15 °C, single cycle, 1:1 binding model, pKD = -LogKD. The assay is classed as binding. How it is done: The Biacore 8K (Cytiva) instrument was used to detect ligand binding of the FAP protein (Sinobiological). FAP protein was captured on the SA chip. Prior to ligand immobilization (flow paths 1 and 2, flow rate of 10 µL/min), FAP protein (10 µg/mL, flow rate of 5 µL/min, injection time of 600 s) was immobilized on flow path 2 using running buffer. The sensor surface was conditioned by injecting 1M NaCl three consecutive times in 50 mM NaOH. After each ligand injection, additional cleaning was performed using isopropanol in 1M NaCl and 50 mM NaOH (flow path 1 and 2, flow rate of 10 µL/min, injection time of 60 s).
The tested compound was dissolved in 100% dimethyl sulfoxide and diluted to 10 mM, then diluted in the assay buffer (PBS, pH 7.4, 1 mM TCEP ([…]), 0.05% P20, 2% dimethyl sulfoxide) to an appropriate maximum concentration. The analyte was run under the following conditions: analysis temperature of 15 °C, analysis step = all set to LMW kinetics; cycle type = single cycle (contact time of 90 s, dissociation time of 1800 s, flow rate of 30 µL/min, flow channels 1 and 2); channel detection = 2-1. Data was evaluated using the Biacore Insight Evaluation Software, and the data were fitted to a 1:1 binding model.
The Biacore results are shown in Table 2 below: pKD = -LogKD, where KD is the binding affinity of the compound to the FAP protein as measured by Biacore.
(In general: Surface plasmon resonance follows binding to a sensor surface in real time, without labels.)

For assay [4], the target named is T3, prolyl oligopeptidase (PREP) (Homo sapiens, UniProt P48147).
T3 sequence (P48147 1-710): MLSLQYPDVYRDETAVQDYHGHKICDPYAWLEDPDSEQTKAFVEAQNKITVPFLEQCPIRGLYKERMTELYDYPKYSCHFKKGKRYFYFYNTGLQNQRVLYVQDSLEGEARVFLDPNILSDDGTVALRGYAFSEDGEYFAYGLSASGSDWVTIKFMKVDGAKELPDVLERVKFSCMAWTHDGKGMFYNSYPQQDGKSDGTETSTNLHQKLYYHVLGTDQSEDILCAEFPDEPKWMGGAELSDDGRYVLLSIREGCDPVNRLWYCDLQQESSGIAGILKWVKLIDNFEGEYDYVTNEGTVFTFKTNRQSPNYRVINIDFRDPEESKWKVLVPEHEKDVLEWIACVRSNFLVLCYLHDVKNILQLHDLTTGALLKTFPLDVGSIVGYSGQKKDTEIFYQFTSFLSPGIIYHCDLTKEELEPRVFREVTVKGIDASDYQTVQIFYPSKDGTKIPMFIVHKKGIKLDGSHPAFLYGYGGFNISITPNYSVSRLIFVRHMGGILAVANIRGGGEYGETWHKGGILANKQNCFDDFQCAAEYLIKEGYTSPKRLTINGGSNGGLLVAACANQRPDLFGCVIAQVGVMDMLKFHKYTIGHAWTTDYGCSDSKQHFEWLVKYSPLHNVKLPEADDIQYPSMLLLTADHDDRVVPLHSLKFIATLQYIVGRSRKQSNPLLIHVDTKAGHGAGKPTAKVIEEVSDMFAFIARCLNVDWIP
In words: Protease inhibition selectivity assay (fluorogenic substrate Z-Gly-Pro-AMC), PREP. In kind it is biochemical. Particulars: recombinant human PREP 0.6 nM, pH 8.0. The procedure:
as §1

Ends that are not written are not given here.

Chain of dipeptidyl peptidase IV (DPPIV) (P27487 whole entry): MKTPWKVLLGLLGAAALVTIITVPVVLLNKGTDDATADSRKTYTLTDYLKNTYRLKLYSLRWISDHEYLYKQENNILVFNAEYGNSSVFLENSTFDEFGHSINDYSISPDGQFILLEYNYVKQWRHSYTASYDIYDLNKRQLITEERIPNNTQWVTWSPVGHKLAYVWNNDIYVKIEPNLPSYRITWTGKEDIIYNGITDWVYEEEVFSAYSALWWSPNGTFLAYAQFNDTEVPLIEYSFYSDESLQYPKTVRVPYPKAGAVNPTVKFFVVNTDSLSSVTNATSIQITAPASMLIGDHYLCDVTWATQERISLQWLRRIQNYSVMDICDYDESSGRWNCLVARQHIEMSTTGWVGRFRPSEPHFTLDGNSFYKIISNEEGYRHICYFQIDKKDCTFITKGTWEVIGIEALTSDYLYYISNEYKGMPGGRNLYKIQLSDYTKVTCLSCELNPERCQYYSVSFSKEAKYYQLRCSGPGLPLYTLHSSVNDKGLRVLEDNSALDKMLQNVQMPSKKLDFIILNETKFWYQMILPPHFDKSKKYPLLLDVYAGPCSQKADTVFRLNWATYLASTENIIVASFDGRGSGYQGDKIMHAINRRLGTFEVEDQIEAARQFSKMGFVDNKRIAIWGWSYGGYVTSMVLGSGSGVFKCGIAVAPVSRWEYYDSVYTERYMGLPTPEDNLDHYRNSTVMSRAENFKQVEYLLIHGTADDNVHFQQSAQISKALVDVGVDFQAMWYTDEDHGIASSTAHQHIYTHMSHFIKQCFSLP

In the case of `CCCCCC(=O)N[C@H]1CSCc2cc(CSCCNC(=O)CN3CCN(CC(=O)O)CCN(CC(=O)O)CCN(CC(=O)O)CC3)cc(c2)CSC[C@@H](C(=O)O)NC(=O)[C@H](Cc2ccccc2)NC(=O)[C@H](CCC(N)=O)NC(=O)[C@H]([C@@H](C)O)NC(=O)[C@@H]2CCCN2C(=O)[C@@H]2CCCN2C1=O` [FAP-2286], the results for the IC50 in assay [1], in assay [2] and in assay [4] were less than 10 nM, greater than 1000 nM and greater than 1000 nM, respectively. Moreover, in assay [3] (read-out: pKD (FAP) (converted)), the Kd was 10 to 100 nM.

Consider “Hex[Cys(3MeBn)-hhy44(NH)-CO-Pro-Thr-Gln-Phe-Cys]-Lys-(DOTA)-OH (PTQFC-{K(DOTA)-OH}; not fully specified (N-terminus, bridges); also: cyclised within brackets, ring closure not given here) [JHDC07]”, for which the “pKD (FAP)” value in assay [3] was “B (B: 7<pKD<8)”.

Turning to “Oct[Cys(tMeBn-DOTA-AET)-hhy39-Pro-Thr-Gln-hhy34-Cys]-Glu-(Arg-Gly-Asp(NH2))-OH [JHDC21]”, in assay [3], the “pKD (FAP)” value was “B (B: 7<pKD<8)”.
